Results: patent US20050004044A1, “Use of orsaponin [3beta, 16beta, 17 alpha-trihydroxycholost-5-en-22-one 16-0-(2-0-4-methoxybenzoyl-beta-D-xylopyranosyl)-(1->3)-(2-0-acetyl-alpha-L-arabinopyranoside)] or OSW-1 and its derivatives for cancer therapeutics” (priority 2003, published 2005)

How the values were obtained:
Raji cells (lymphoma) = assay: MTT cell growth inhibition, Raji; format: cell-based, human; details: 72 h
Description: FIG. 2. Effect of Orsaponin (OSW-1) on cell growth in two human cancer cell lines including a leukemia and a lymphoma cell line. HL-60 (leukemia) and Raji cells (lymphoma) in exponentially growing phase were treated with the indicated concentrations of OSW-1 for 72 hours. Cell growth inhibition was measured by MTT assay.
Cells and Cell Lines. Various cancer cell lines were used including the human leukemia cell lines HL-60 and ML-1 cells; human lymphoma cell line Raji; human pancreatic cancer cells AsPC-1; and human ovarian cancer cells SKOV3; human colon cancer cells HCT116; as well as isolated CLL cells from patients; and lymphocytes from normal donors. Cells were grown and maintained as per protocols known in the art using appropriate cell culture media and supplements.
(§1) 1. MTT Assays. For these assays either cancer cell lines were used. […] After the indicated number of days (usually 3 days or 72 hours) of exposure to OSW-1, cell survival was assessed by the addition of the MTT dye to the wells. […] Survival of cells under orsaponin treatment was evaluated as a percentage of control cell growth. […]
Anticancer activities of Orsaponin and 17-deoxyorsaponin were examined in human leukemia cells (ML-1) and human lymphoma cells (Raji). Cells were incubated with various concentrations of Orsaponin and 17-deoxyorsaponin for 72 h, and cell growth inhibition was measured by MTT assay.

[1] = tested on: ovarian cancer SKOV3 cells; assay: MTT cell growth inhibition, SKOV3; format: cell-based; details: Homo sapiens, SK-OV-3, SKOV3, 72 h
Description: FIG. 5. Effect of Orsaponin (OSW-1) on cell growth in human ovarian cancer cells (SKOV3). Human ovarian cancer SKOV3 cells were treated with the indicated concentrations of OSW-1 for 72 h. Cell growth inhibition was measured by the MTT assay. The IC50 value is approximately 0.2 nM under the experimental conditions.
as §1, with “used. Alternatively, mononuclear cells from peripheral blood samples of CLL patients or normal donors were separated by Ficoll Hipaque fractionation and resuspended in DMEM complete medium.” for “used.”
OSW-1 Inhibits Growth of Ovarian Cancer Cells. […] Human ovarian cancer SKOV3 cells were treated with 0-10 nM OSW-1 for 72 h and cell growth inhibition was measured by the MTT assay.
The effect of 17-deoxyorsaponin in human ovarian cancer cells was determined. […] Cell growth inhibition was measured by MTT assay (FIG. 17). […] ML-1 leukemia cells were incubated with various concentrations of 17-deoxyorsaponin for 72 h and cell growth inhibition was measured using the MTT assay (FIG. 18).

primary CLL cells = assay: cells; format: cell-based
Description: FIG. 7. Effect of Orsaponin (OSW-1) on cell survival in primary human leukemia cells isolated from patients with chronic lymphocytic leukemia (CLL). Freshly isolated primary CLL cells were incubated with the indicated concentrations of OSW-1 for 72 hours in vitro. Cell viability was measured by MTT assay. […] Data from representative experiments with CLL cells from three different patients are shown. A total of 23 CLL blood samples were tested for sensitivity to OSW-1 in the same fashion.
1. MTT Assays. For these assays either cancer cell lines were used. Alternatively, mononuclear cells from peripheral blood samples of CLL patients or normal donors were separated by Ficoll Hipaque fractionation and resuspended in DMEM complete medium. Malignant cells from various human cell lines (usually at 5×10^4 cells/ml) or mononuclear cells from peripheral blood of leukemia patients and healthy donors (1×10^6 cells/ml) were incubated in either αMEM or RPMI 1640 with or without various concentrations of OSW-1 in the range of 0-10 nM. Each experimental condition was done in triplicate. After the indicated number of days (usually 3 days or 72 hours) of exposure to OSW-1, cell survival was assessed by the addition of the MTT dye to the wells. The MTT dye changes its color depending on the presence of live cells in the well. Survival of cells under orsaponin treatment was evaluated as a percentage of control cell growth. Alternatively, one can also use the dye trypan-blue which penetrates dead cells thereby allowing one to count live cells under the microscope and estimating percentage survival.
Reduction of Cell Viability in CLL-Patient-Derived Cells. […] Freshly isolated primary CLL cells were incubated with the 0-100 nM OSW-1 for 72 hours in vitro and cell viability was measured by the MTT assay.
Cytotoxic activity of 17-deoxyorsaponin was also assessed in a number of patient samples. Primary human leukemia cells isolated from 11 patients with chronic lymphocytic leukemia (CLL) were analyzed for cytotoxic activity of 17-deoxyorsaponin. […]

C6F cells = assay: Mitochondrial transmembrane potential (rhodamine-123), C6F; format: cell-based, human; details: 0.5 nM
Description: FIG. 10. Effect of Orsaponin (OSW-1) on Mitochondrial transmembrane potential HL-60 cells. The parental HL-60 line and its mutant with mitochondrial respiration defect, clone C6F, were incubated with 0.5 nM OSW-1 for the indicated times. Change in mitochondrial transmembrane potential was measured by cytometry analysis, using rhodamine-123 as a potential-sensitive fluorescent dye.
3. Analysis of the Mitochondrial Transmembrane Potential. To evaluate the role of mitochondrial respiration in the cytotoxicity of OSW-1, changes in the potential of mitochondrial membrane were analyzed. Following the treatment of cells with OSW-1 for different time periods, cells were incubated with rhodamine-123 which is a potential-sensitive dye. Cytometric analysis was used to record changes in mitochondrial potential. […]
The effect of OSW-1 on mitochondrial transmembrane potential in HL-60 cells and C6F cells was also analyzed by incubating the cells with 0.5 nM OSW-1 for the 4, 16 and 24 hours. Change in mitochondrial transmembrane potential was measured by flow cytometry analysis, using rhodamine-123 as a potential-sensitive fluorescent dye and are depicted in FIG. 10.

[2] = tested on: cancer cells of pancreatic, ovarian, colon, and CLL origins; assay: Cytotoxicity in cancer cells, summary statement; format: cell-based; details: Homo sapiens, read-out: IC50, kills cancer cells
Excerpt: The results were also observed in vivo in mouse models of ovarian cancer where animal survival was improved, and tumor volume reductions were observed

**Q.** `COc1ccc(C(=O)OC2C(OC3C(O)COC(O[C@H]4C[C@H]5[C@@H]6CC=C7C[C@@H](O)CC[C@]7(C)[C@H]6CC[C@]5(C)[C@@]4(O)[C@H](C)C(=O)CCC(C)C)C3OC(C)=O)OCC(O)C2O)cc1` (stereo partly drawn) [OSW-1, 3β, 16β, 17 α-trihydroxycholost-5-en-22-one 16-O-(2-O-4-methoxybenzoyl-β-D-xylopyranosyl)-(1->3)-(2-O-acetyl-α-L-arabinopyranoside)] was tested. Which IC50 (Raji cells (lymphoma)) did it give?
**A.** < 0.5 nM

**Q.** And the IC50 [1]?
**A.** ~0.2 nM

**Q.** And the IC50 (primary CLL cells; Homo sapiens, CLL cell, 72 h, primary CLL cells, 72 hours, MTT, mean of 23 patients, read-out: IC50, cell viability)?
**A.** 0.15 ± 0.26 nM

**Q.** And the “Selectivity Index” value (primary CLL cells; IC50 ratio of malignant/normal cells (CLL vs normal lymphocytes))?
**A.** 23

**Q.** And the “change in mitochondrial transmembrane potential” value (C6F cells)?
**A.** did not show significant loss of mitochondrial transmembrane potential

**Q.** What about the IC50 [2] of the same compound?
**A.** < 1 nM
